Assay results from ChEMBL document CHEMBL3576778, “Structure-Activity Relationship Studies of a Series of Semisynthetic Lipopeptides Leading to the Discovery of Surotomycin, a Novel Cyclic Lipopeptide Being Developed for the Treatment of Clostridium difficile-Associated Diarrhea” (J Med Chem, 2015).
Converted amounts (≈) assume the structure as drawn.

How the values were obtained:
Assay type in all cases: functional
Staphylococcus aureus [1] = experiment: Antimicrobial activity against daptomycin-non-susceptible Staphylococcus aureus 278 incubated anaerobically at 37 degC for 48 hrs by agar dilution method; conditions: Staphylococcus aureus, 278, 48 h
Staphylococcus aureus [2] = experiment: Antimicrobial activity against daptomycin-non-susceptible Staphylococcus aureus 5034 incubated anaerobically at 37 degC for 48 hrs by agar dilution method; conditions: Staphylococcus aureus, 5034, 48 h
Staphylococcus aureus [3] = experiment: Antimicrobial activity against daptomycin-non-susceptible Staphylococcus aureus 5016 incubated anaerobically at 37 degC for 48 hrs by agar dilution method; conditions: Staphylococcus aureus, 5016, 48 h
Staphylococcus aureus [4] = experiment: Antimicrobial activity against daptomycin-non-susceptible Staphylococcus aureus 5033 incubated anaerobically at 37 degC for 48 hrs by agar dilution method; conditions: Staphylococcus aureus, 5033, 48 h
Staphylococcus aureus [5] = experiment: Antimicrobial activity against daptomycin-non-susceptible Staphylococcus aureus 5080 incubated anaerobically at 37 degC for 48 hrs by agar dilution method; conditions: Staphylococcus aureus, 5080, 48 h
Staphylococcus aureus [6] = experiment: Antimicrobial activity against daptomycin-non-susceptible Staphylococcus aureus 5063 incubated anaerobically at 37 degC for 48 hrs by agar dilution method; conditions: Staphylococcus aureus, 5063, 48 h
Staphylococcus aureus [7] = experiment: Antimicrobial activity against daptomycin-non-susceptible Staphylococcus aureus 42 incubated anaerobically at 37 degC for 48 hrs by agar dilution method; conditions: Staphylococcus aureus, 42, 48 h
Staphylococcus aureus [8] = experiment: Antimicrobial activity against daptomycin-susceptible Staphylococcus aureus ATCC 29213 incubated anaerobically at 37 degC for 48 hrs by agar dilution method; conditions: ATCC 29213, 48 h
Enterococcus faecalis = experiment: Antimicrobial activity against daptomycin-resistant Enterococcus faecalis ATCC 49452 incubated anaerobically at 37 degC for 48 hrs by agar dilution method; conditions: ATCC 49452, 48 h
Clostridioides difficile = experiment: Antimicrobial activity against daptomycin-resistant Clostridium difficile NAP1 incubated anaerobically at 37 degC for 48 hrs by agar dilution method; conditions: NAP1, 48 h
Staphylococcus aureus [9] = experiment: Antimicrobial activity against daptomycin-non-susceptible Staphylococcus aureus 5003 incubated anaerobically at 37 degC for 48 hrs by agar dilution method; conditions: Staphylococcus aureus, 5003, 48 h
Staphylococcus aureus [10] = experiment: Antimicrobial activity against daptomycin-non-susceptible Staphylococcus aureus 5017 incubated anaerobically at 37 degC for 48 hrs by agar dilution method; conditions: Staphylococcus aureus, 5017, 48 h
Staphylococcus aureus [11] = experiment: Antimicrobial activity against daptomycin-non-susceptible Staphylococcus aureus 5081 incubated anaerobically at 37 degC for 48 hrs by agar dilution method; conditions: Staphylococcus aureus, 5081, 48 h
Staphylococcus aureus [12] = experiment: Antimicrobial activity against daptomycin-non-susceptible Staphylococcus aureus 5030 incubated anaerobically at 37 degC for 48 hrs by agar dilution method; conditions: Staphylococcus aureus, 5030, 48 h
Staphylococcus aureus [13] = experiment: Antimicrobial activity against daptomycin-non-susceptible Staphylococcus aureus 1326 incubated anaerobically at 37 degC for 48 hrs by agar dilution method; conditions: Staphylococcus aureus, 1326, 48 h
Staphylococcus aureus [14] = experiment: Antimicrobial activity against daptomycin-non-susceptible Staphylococcus aureus 5091 incubated anaerobically at 37 degC for 48 hrs by agar dilution method; conditions: Staphylococcus aureus, 5091, 48 h
Staphylococcus aureus [15] = experiment: Antimicrobial activity against daptomycin-non-susceptible Staphylococcus aureus 1145 incubated anaerobically at 37 degC for 48 hrs by agar dilution method; conditions: Staphylococcus aureus, 1145, 48 h
Staphylococcus aureus [16] = experiment: Antimicrobial activity against daptomycin-non-susceptible Staphylococcus aureus 1616 incubated anaerobically at 37 degC for 48 hrs by agar dilution method; conditions: Staphylococcus aureus, 1616, 48 h
Staphylococcus aureus [17] = experiment: Antimicrobial activity against daptomycin-non-susceptible Staphylococcus aureus 5012 incubated anaerobically at 37 degC for 48 hrs by agar dilution method; conditions: Staphylococcus aureus, 5012, 48 h
Staphylococcus aureus [18] = experiment: Antimicrobial activity against daptomycin-non-susceptible Staphylococcus aureus 5008 incubated anaerobically at 37 degC for 48 hrs by agar dilution method; conditions: Staphylococcus aureus, 5008, 48 h
Staphylococcus aureus [19] = experiment: Antimicrobial activity against daptomycin-non-susceptible Staphylococcus aureus 5005 incubated anaerobically at 37 degC for 48 hrs by agar dilution method; conditions: Staphylococcus aureus, 5005, 48 h
Staphylococcus aureus [20] = experiment: Antimicrobial activity against daptomycin-non-susceptible Staphylococcus aureus 5006 incubated anaerobically at 37 degC for 48 hrs by agar dilution method; conditions: Staphylococcus aureus, 5006, 48 h
Staphylococcus aureus [21] = experiment: Antimicrobial activity against daptomycin-non-susceptible Staphylococcus aureus 5010 incubated anaerobically at 37 degC for 48 hrs by agar dilution method; conditions: Staphylococcus aureus, 5010, 48 h
Staphylococcus aureus [22] = experiment: Antimicrobial activity against daptomycin-non-susceptible Staphylococcus aureus 5076 incubated anaerobically at 37 degC for 48 hrs by agar dilution method; conditions: Staphylococcus aureus, 5076, 48 h
Staphylococcus aureus [23] = experiment: Antimicrobial activity against daptomycin-non-susceptible Staphylococcus aureus 1179 incubated anaerobically at 37 degC for 48 hrs by agar dilution method; conditions: Staphylococcus aureus, 1179, 48 h
Staphylococcus aureus [24] = experiment: Antimicrobial activity against daptomycin-non-susceptible Staphylococcus aureus 5059 incubated anaerobically at 37 degC for 48 hrs by agar dilution method; conditions: Staphylococcus aureus, 5059, 48 h
Staphylococcus aureus [25] = experiment: Antimicrobial activity against daptomycin-non-susceptible Staphylococcus aureus 5060 incubated anaerobically at 37 degC for 48 hrs by agar dilution method; conditions: Staphylococcus aureus, 5060, 48 h
Staphylococcus aureus [26] = experiment: Antimicrobial activity against daptomycin-non-susceptible Staphylococcus aureus 1146 incubated anaerobically at 37 degC for 48 hrs by agar dilution method; conditions: Staphylococcus aureus, 1146, 48 h
Staphylococcus aureus [27] = experiment: Antimicrobial activity against daptomycin-non-susceptible Staphylococcus aureus 5014 incubated anaerobically at 37 degC for 48 hrs by agar dilution method; conditions: Staphylococcus aureus, 5014, 48 h
Staphylococcus aureus [28] = experiment: Antimicrobial activity against daptomycin-non-susceptible Staphylococcus aureus 5004 incubated anaerobically at 37 degC for 48 hrs by agar dilution method; conditions: Staphylococcus aureus, 5004, 48 h
Enterococcus faecium = experiment: Antimicrobial activity against daptomycin-resistant Enterococcus faecium ATCC 6569 incubated anaerobically at 37 degC for 48 hrs by agar dilution method; conditions: ATCC 6569, 48 h

`CCCCCCCCCC(=O)N[C@@H](Cc1c[nH]c2ccccc12)C(=O)N[C@H](CC(N)=O)C(=O)N[C@@H](CC(=O)O)C(=O)N[C@@H]1C(=O)NCC(=O)N[C@@H](CCCN)C(=O)N[C@@H](CC(=O)O)C(=O)N[C@H](C)C(=O)N[C@@H](CC(=O)O)C(=O)NCC(=O)N[C@H](CO)C(=O)N[C@@H]([C@H](C)CC(=O)O)C(=O)N[C@@H](CC(=O)c2ccccc2N)C(=O)O[C@@H]1C` showed an MIC (Staphylococcus aureus [1]) of 16 µg/mL (≈ 9.87 µM), an MIC (Staphylococcus aureus [2]) of 2 µg/mL (≈ 1.23 µM) and an MIC (Staphylococcus aureus [3]) of 4 µg/mL (≈ 2.47 µM). The MIC (Staphylococcus aureus [4]) was 1 µg/mL (≈ 0.617 µM), the MIC (Staphylococcus aureus [5]) was 4 µg/mL (≈ 2.47 µM) and the MIC (Staphylococcus aureus [6]) was 8 µg/mL (≈ 4.94 µM). For the same compound, the MIC (Staphylococcus aureus [7]) was 0.5 µg/mL (≈ 0.309 µM), the MIC (Staphylococcus aureus [8]) was 0.5 µg/mL (≈ 0.309 µM) and the MIC (Enterococcus faecalis) was > 32 µg/mL. For the same compound, the MIC (Clostridioides difficile) was 2 µg/mL (≈ 1.23 µM), the MIC (Staphylococcus aureus [9]) was 2 µg/mL (≈ 1.23 µM) and the MIC (Staphylococcus aureus [10]) was 4 µg/mL (≈ 2.47 µM). For the same compound, the MIC (Staphylococcus aureus [11]) was 4 µg/mL (≈ 2.47 µM), the MIC (Staphylococcus aureus [12]) was 8 µg/mL (≈ 4.94 µM) and the MIC (Staphylococcus aureus [13]) was 4 µg/mL (≈ 2.47 µM). For the same compound, the MIC (Staphylococcus aureus [14]) was 2 µg/mL (≈ 1.23 µM), the MIC (Staphylococcus aureus [15]) was 1 µg/mL (≈ 0.617 µM) and the MIC (Staphylococcus aureus [16]) was 16 µg/mL (≈ 9.87 µM). For the same compound, the MIC (Staphylococcus aureus [17]) was 2 µg/mL (≈ 1.23 µM), the MIC (Staphylococcus aureus [18]) was 2 µg/mL (≈ 1.23 µM) and the MIC (Staphylococcus aureus [19]) was 4 µg/mL (≈ 2.47 µM). For the same compound, the MIC (Staphylococcus aureus [20]) was 2 µg/mL (≈ 1.23 µM), the MIC (Staphylococcus aureus [21]) was 0.5 µg/mL (≈ 0.309 µM) and the MIC (Staphylococcus aureus [22]) was 2 µg/mL (≈ 1.23 µM). For the same compound, the MIC (Staphylococcus aureus [23]) was 2 µg/mL (≈ 1.23 µM), the MIC (Staphylococcus aureus [24]) was 4 µg/mL (≈ 2.47 µM) and the MIC (Staphylococcus aureus [25]) was 4 µg/mL (≈ 2.47 µM). It also gave an MIC (Staphylococcus aureus [26]) of 1 µg/mL (≈ 0.617 µM), an MIC (Staphylococcus aureus [27]) of 0.5 µg/mL (≈ 0.309 µM) and an MIC (Staphylococcus aureus [28]) of 1 µg/mL (≈ 0.617 µM). For the same compound, the MIC (Enterococcus faecium) was > 32 µg/mL.

In the case of `C[C@H]1NC(=O)C(CC(=O)O)NC(=O)[C@H](CCCN)NC(=O)CNC(=O)[C@@H](NC(=O)[C@H](CC(=O)O)NC(=O)[C@H](CC(N)=O)NC(=O)[C@H](Cc2c[nH]c3ccccc23)NC(=O)CCCCCc2ccccc2)[C@@H](C)OC(=O)[C@H](CC(=O)c2ccccc2N)NC(=O)[C@H]([C@@H](C)CC(=O)O)NC(=O)[C@@H](CO)NC(=O)CNC(=O)[C@H](CC(=O)O)NC1=O` (single isomer, unassigned), the MIC (Staphylococcus aureus [8]) is reported as 16 µg/mL (≈ 9.75 µM), the MIC (Enterococcus faecalis) is reported as > 32 µg/mL and the MIC (Clostridioides difficile) is reported as 16 µg/mL (≈ 9.75 µM). The MIC (Enterococcus faecium) was > 32 µg/mL.

In the case of `C[C@H]1NC(=O)C(CC(=O)O)NC(=O)[C@H](CCCN)NC(=O)CNC(=O)[C@@H](NC(=O)[C@H](CC(=O)O)NC(=O)[C@H](CC(N)=O)NC(=O)[C@H](Cc2c[nH]c3ccccc23)NC(=O)CCCCCCc2ccccc2)[C@@H](C)OC(=O)[C@H](CC(=O)c2ccccc2N)NC(=O)[C@H]([C@@H](C)CC(=O)O)NC(=O)[C@@H](CO)NC(=O)CNC(=O)[C@H](CC(=O)O)NC1=O` (single isomer, unassigned), the MIC (Staphylococcus aureus [8]) is reported as 16 µg/mL (≈ 9.67 µM), the MIC (Enterococcus faecalis) is reported as > 32 µg/mL and the MIC (Clostridioides difficile) is reported as 8 µg/mL (≈ 4.83 µM). The MIC (Enterococcus faecium) was > 32 µg/mL.

`CCCCCOc1ccc(/C=C/C(=O)N[C@@H](Cc2c[nH]c3ccccc23)C(=O)N[C@@H](CC(N)=O)C(=O)N[C@@H](CC(=O)O)C(=O)N[C@@H]2C(=O)NCC(=O)N[C@@H](CCCN)C(=O)NC(CC(=O)O)C(=O)N[C@H](C)C(=O)N[C@@H](CC(=O)O)C(=O)NCC(=O)N[C@H](CO)C(=O)N[C@@H]([C@@H](C)CC(=O)O)C(=O)N[C@@H](CC(=O)c3ccccc3N)C(=O)O[C@@H]2C)cc1` (single isomer, unassigned) was tested, and the MIC (Staphylococcus aureus [8]) was 4 µg/mL (≈ 2.38 µM), the MIC (Enterococcus faecalis) was > 32 µg/mL and the MIC (Clostridioides difficile) was 4 µg/mL (≈ 2.38 µM). For the same compound, the MIC (Enterococcus faecium) was > 32 µg/mL.

`CCCCc1ccc(/C=C(\C)C(=O)N[C@@H](Cc2c[nH]c3ccccc23)C(=O)N[C@@H](CC(N)=O)C(=O)N[C@@H](CC(=O)O)C(=O)N[C@@H]2C(=O)NCC(=O)N[C@@H](CCCN)C(=O)NC(CC(=O)O)C(=O)N[C@H](C)C(=O)N[C@@H](CC(=O)O)C(=O)NCC(=O)N[C@H](CO)C(=O)N[C@@H]([C@@H](C)CC(=O)O)C(=O)N[C@@H](CC(=O)c3ccccc3N)C(=O)O[C@@H]2C)cc1` (single isomer, unassigned) was tested, and the MIC (Staphylococcus aureus [8]) was 1 µg/mL (≈ 0.6 µM), the MIC (Enterococcus faecalis) was > 32 µg/mL and the MIC (Clostridioides difficile) was 2 µg/mL (≈ 1.2 µM). The MIC (Enterococcus faecium) was 32 µg/mL (≈ 19.2 µM).

Compound `CCCCCCOc1ccc(-c2csc(C(=O)N[C@@H](Cc3c[nH]c4ccccc34)C(=O)N[C@@H](CC(N)=O)C(=O)N[C@@H](CC(=O)O)C(=O)N[C@@H]3C(=O)NCC(=O)N[C@@H](CCCN)C(=O)NC(CC(=O)O)C(=O)N[C@H](C)C(=O)N[C@@H](CC(=O)O)C(=O)NCC(=O)N[C@H](CO)C(=O)N[C@@H]([C@@H](C)CC(=O)O)C(=O)N[C@@H](CC(=O)c4ccccc4N)C(=O)O[C@@H]3C)c2)cc1` (single isomer, unassigned) has an MIC (Staphylococcus aureus [8]) of 0.5 µg/mL (≈ 0.285 µM), an MIC (Enterococcus faecalis) of 8 µg/mL (≈ 4.56 µM) and an MIC (Clostridioides difficile) of 4 µg/mL (≈ 2.28 µM). For the same compound, the MIC (Enterococcus faecium) was 2 µg/mL (≈ 1.14 µM).
